Several values for one entry are separate records, joined by “and”; a condition that tells them apart may be missing. Identical values can stand only once. Like-named read-outs stand apart in the source and are kept apart here.
Legend:
apo(a) KIV2 = molecular target: T1, apo(a) KIV2 (Homo sapiens, UniProt P08519); test: ITC binding to apo(a) KIV2; conditions: for Fold-difference (KIV2:KIV8): ratio of ITC Kd values KIV2:KIV8
T1 construct: made in house
T1 sequence (P08519 141-219 limits assumed): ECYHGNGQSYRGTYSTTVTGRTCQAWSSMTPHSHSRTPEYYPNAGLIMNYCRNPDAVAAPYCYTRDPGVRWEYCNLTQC
Procedure: The nucleotide sequence encoding the human LPA gene (NP_005568.2) was inserted into a mammalian expression vector containing a cytomegalovirus promoter. Protein expression was performed by transient transfection of human embryonic kidney 293 (HEK293) cells cultured in serum-free medium. The culture medium was collected five days after transfection and human apo(a) protein was purified using L-lysine affinity chromatography. Nucleotide sequences encoding various KIV domains of human apo(a) and human and rat plasminogen were inserted into a pET21a Escherichia coli expression vector. Bacterial BL21(DE3) was used as the expression host, and the induction of protein expression was performed in 2× TY medium with 1 mM isopropyl β-D-1-thiogalactopyranoside at 37 °C for 5 h. Cells were collected and stored at –80 °C for subsequent protein purification and refolding. The frozen cell pellets were lysed and inclusion bodies were purified. The protein refolding was performed using the rapid-dilution method, and the refolded proteins were further purified by size-exclusion chromatography. All protein concentrations were determined by A280.
Experiments were performed on a MicroCal Auto-iTC200 titration calorimeter (Malvern Panalytical), with a cell volume of 200 μl and a 40-μl microsyringe. Experiments were performed at 25 °C while stirring at 750 rpm in ITC buffer (50 mM phosphate buffer at pH 8.0). The microsyringe was loaded with a solution of the respective compounds, with the concentration measured by quantitative nuclear magnetic resonance, and was inserted into the calorimetric cell prefilled with the respective recombinant proteins of known concentration in ITC buffer. The system was equilibrated to 25 °C and an extra delay of 60 s was applied. The first titrations were performed using an initial control injection of 0.5 μl, followed by 18 identical injections of 2 μl, with a duration of 4 s per injection and 150-s intervals between injections. The second titration was performed over the first titration without cleaning the cell and was carried out with continuous injections as an automation method in a MicroCal Auto-iTC200. The second titrations were performed using 19 identical injections of 2 μl, with a duration of 4 s per injection and 150-s injection intervals. The data were corrected for ligand heats of dilution and were deconvoluted using MicroCal PEAQ-ITC Analysis Software to yield the enthalpy of binding (ΔH) and the binding constant (K). Thermodynamic parameters were calculated using the basic equation of thermodynamics (ΔG = ΔH – TΔS = –RTlnKd), where ΔG, ΔH and ΔS are the changes in free energy, enthalpy and entropy of binding, respectively; Kd is the equilibrium dissociation constant; T is the absolute temperature (kelvins); and R is the gas constant (1.987 cal mol^−1 K^−^1). A single-binding-site model was used in MicroCal PEAQ-ITC Analysis Software v.0.9.

Lp(a) = Lp(a) levels in LPA × ApoB100 transgenic mice; type: in vivo, mouse; parameters: Lp(a) / Diff_vs_Vehicle: unit not given here; conditions: for % max Lp(a) decrease (dose, mg/kg): Lp(a) transgenic mice section; for % Lp(a) max decrease / ED50: BID, 5 days dosing; for Percent_change_from_Vehicle / Diff_vs_Vehicle: Lp(a); for Diff_vs_Vehicle: group statistics; for ED50: Mus musculus, 120 h
Procedure: (§1) The LPA gene (GenBank accession code NM_005577) encoding the human apo(a) protein with a signal peptide, one KIV type 1, six KIV type 2 repeats, one each of KIV types 3–10, one KV and one protease domain was subcloned into a transgenic vector containing a mouse albumin promoter cassette and a human growth hormone polyadenylation signal. The transgenic mouse line was generated by pronucleus injection of the LPA transgenic vector. Eight individual transgenic founder mice were assessed for germline transmission of LPA by genotyping and assessment of the levels of apo(a) in the plasma. Positive founder mice were crossed with ApoB100 transgenic mice (Taconic model 1004), and the resulting mouse line nomenclature (B6.SJL-Tg(APOB)1102Sgy Tg(Alb-LPA)32Arte) was selected on the basis of the confirmation of germline transmission, the identification of LPA and huApoB100 transgenes and the levels of Lp(a) in the plasma. Mice hemizygous for both transgenes were used for pharmacology studies. The studies were conducted in female Lp(a) double transgenic mice (age around 7–17 months). Mice were housed in cages with a standard light cycle (12-h light, 12-h dark), at room temperature (22 ± 4 °C), with a relative humidity of 30–70%. Mice were identified by numbers on the cage cards. After arrival, mice were fed on a normal diet (Harlan Teklad diet 2014). Mice were randomized to treatment groups (n = 5 per group, unless otherwise noted) by body weight and baseline plasma Lp(a) concentration using a block randomized allocation tool (BRAT) for the study. In an example Lp(a) transgenic mouse study in which 66 mice were prescreened for baseline Lp(a) levels, the average Lp(a) level was 45 ± 1.8 µg ml^−1 (range 20–78 µg ml^−1). Mice were dosed with various compounds in vehicle (10 ml kg^−1, 1% hydroxyethyl cellulose (HEC), 0.25% Tween-80, Antifoam) or with vehicle alone as a control orally BID for five days. Blood samples were collected by tail bleeds at designated times, and Lp(a) levels were determined by ELISA by an investigator who was blinded to group allocation. In brief, lipoprotein particles were captured by a goat anti-Lp(a)-antibody-coated plate (Abcam ab31675, diluted 1:12,500 in HEPES-buffered saline), the plates were washed and samples were detected using an HRP-conjugated goat anti-apoB antibody (Abcam ab27622, diluted 1:3,000). Colorimetric peroxidase substrate 3,3’,5,5’-TMB was added, and the reaction was stopped using 1 N sulfuric acid. Absorbance at 450 nm was read on a Molecular Devices SpectraMax plate reader. Blood samples were collected at four hours after dosing on day 5 of dosing to confirm exposure. Full pharmacokinetic (PK) profiles were not evaluated. Concentrations of compounds were evaluated from dried blood spots through a non-Good Laboratory Practice (GLP) liquid chromatography with tandem mass spectrometry (LC–MS/MS) assay. Data were analysed in GraphPad Prism v.9.5.1

[1] = Drug concentration in mouse blood after oral dosing; type: in vivo; conditions: female, whole blood (dried blood spots), day 5, read-out: Drug concentration, 4-h time point
Procedure: as §1

[2] = Pharmacokinetics in monkey plasma after oral dosing; type: in vivo
[3] = transgenic mice, 1mpk oral BID five days, individual animal, 1 mg/kg
[4] = transgenic mice, 3mpk oral BID five days, individual animal, 3 mg/kg
[5] = transgenic mice, 10mpk oral BID five days, individual animal, 10 mg/kg
[6] = transgenic mice, 30mpk oral BID five days, individual animal, 30 mg/kg
[7] = cynomolgus, oral 2 mg/kg, day 14
[8] = cynomolgus, oral 10 mg/kg, day 14
[9] = 1mpk, individual animals, Fig 3f data
[10] = 3mpk, individual animals, Fig 3f data
[11] = 10mpk, individual animals, Fig 3f data
[12] = 30mpk, individual animals, Fig 3f data

Question: For Cl.Cl.O=C(Nc1cccc(C[C@H](C(=O)O)[C@H]2CCNC2)c1)Nc1cccc(C[C@H](C(=O)O)[C@H]2CCNC2)c1 [LSN3441732], which Kd (apo(a) KIV2; ITC) is on record?
Answer: Its Kd is 130000 nM.

Question: And the “binding to KIV2” value (apo(a) KIV2; ITC, in words)?
Answer: Its value is “ruled out”.

Question: And the “Fold-difference (KIV2:KIV8)” value (apo(a) KIV2)?
Answer: Its value is over 13000.

Question: And the “% max Lp(a) decrease (dose, mg/kg)” value (Lp(a); dose 30 mg/kg)?
Answer: The value was 79 (30) %.

Question: What about the “mean maximal inhibition of Lp(a)” value (Lp(a); Lp(a) transgenic mice, 30 mg kg^−1 oral BID, five days) of the same compound?
Answer: The value was 79%.

Question: And the “% Lp(a) max decrease” value (Lp(a); Lp(a) transgenic mice)?
Answer: The value was 79%.

Question: And the “ED50 for Lp(a) reduction” value (Lp(a); Lp(a) transgenic mice, oral BID, five days)?
Answer: The value was 4 mg/kg.

Question: And the Percent_change_from_Vehicle (Lp(a); [3])?
Answer: The Percent_change_from_Vehicle was -26.3802% and -29.1802% and -35.4498% and -52.0742% and 20.793%.

Question: And the Diff_vs_Vehicle (Lp(a); transgenic mice, 1mpk)?
Answer: The Diff_vs_Vehicle was -9.583.

Question: What about the Percent_change_from_Vehicle (Lp(a); [4]) of the same compound?
Answer: Its Percent_change_from_Vehicle is -66.5236% and -51.6627% and -46.9156% and -38.737% and -24.3395%.

Question: What about the Diff_vs_Vehicle (Lp(a); transgenic mice, 3mpk) of the same compound?
Answer: Its Diff_vs_Vehicle is -17.8805.

Question: What about the Percent_change_from_Vehicle (Lp(a); [5]) of the same compound?
Answer: The Percent_change_from_Vehicle was -76.5617% and -56.1229% and -72.4537% and -56.7885% and -51.1958%.

Question: And the Diff_vs_Vehicle (Lp(a); transgenic mice, 10mpk)?
Answer: Its Diff_vs_Vehicle is -24.5369.

Question: And the Percent_change_from_Vehicle (Lp(a); [6])?
Answer: Its Percent_change_from_Vehicle is -63.8115% and -85.6659% and -79.4795% and -86.8495% and -81.3358%.

Question: What about the Diff_vs_Vehicle (Lp(a); transgenic mice, 30mpk) of the same compound?
Answer: The Diff_vs_Vehicle was -31.1209.

Question: And the ED50 (Lp(a); Lp(a) transgenic mice)?
Answer: Its ED50 is 4 mg/kg.

Question: And the “Lp(a)” value (Lp(a); [3])?
Answer: The value was 28.845 and 27.7479 and 25.2914 and 18.7778 and 47.3279.

Question: And the “Lp(a)” value (Lp(a); [4])?
Answer: The value was 13.1164 and 18.9391 and 20.799 and 24.0035 and 29.6445.

Question: What about the “Lp(a)” value (Lp(a); [5]) of the same compound?
Answer: The value was 9.183 and 17.1915 and 10.7929 and 16.9307 and 19.122.

Question: What about the “Lp(a)” value (Lp(a); [6]) of the same compound?
Answer: Its value is 14.179 and 5.616 and 8.04 and 5.1525 and 7.3128.

Question: What about the concentration at 4 h ([1]; oral 1 mg/kg) of the same compound?
Answer: Its concentration at 4 h is 147 ± 126 nM.

Question: What about the concentration at 4 h ([1]; oral 3 mg/kg) of the same compound?
Answer: Its concentration at 4 h is 432 ± 203 nM.

Question: And the concentration at 4 h ([1]; oral 10 mg/kg)?
Answer: The concentration at 4 h was 465 ± 167 nM.

Question: And the concentration at 4 h ([1]; oral 30 mg/kg)?
Answer: Its concentration at 4 h is 625 ± 184 nM.

Question: And the Cmax [2, 7]?
Answer: Its Cmax is 754 ± 428 nM.

Question: And the Tmax [2, 7]?
Answer: Its Tmax is 3.81 ± 2.14 h.

Question: And the AUC(0-t) ([2]; cynomolgus, oral 2 mg/kg, day 14, read-out: AUC(0-96 hr))?
Answer: Its AUC(0-t) is 5.63 µM·h.

Question: And the Cmax [2, 8]?
Answer: Its Cmax is 4380 nM.

Question: And the Tmax [2, 8]?
Answer: Its Tmax is 2.06 ± 1.32 h.

Question: And the AUC(0-t) ([2]; cynomolgus, oral 10 mg/kg, day 14, read-out: AUC(0-96 hr))?
Answer: The AUC(0-t) was 22.2 µM·h.

Question: Which results are given for O=C(O)[C@@H](Cc1cccc(CN(Cc2cccc(C[C@H](C(=O)O)[C@H]3CCNC3)c2)Cc2cccc(C[C@H](C(=O)O)[C@H]3CCNC3)c2)c1)[C@H]1CCNC1 [LY3473329]?
Answer: Kd (apo(a) KIV2; ITC): 3900 nM; Fold-difference (KIV2:KIV8) (apo(a) KIV2): 177; Lp(a) (Lp(a); [9]): 7.93 and 10.403 and 8.938 and 8.912 and 9.52; Percent_change_from_Vehicle (Lp(a)) (Lp(a); [9]): -28.3118% and -5.956% and -19.1994% and -19.4345% and -13.9381%; Lp(a) (Lp(a); [10]): 3.393 and 6.014 and 3.723 and 4.125 and 6.197; Percent_change_from_Vehicle (Lp(a)) (Lp(a); [10]): -69.3269% and -45.6327% and -66.3436% and -62.7095% and -43.9784%; Lp(a) (Lp(a); [11]): 2.124 and 2.374 and 3.019 and 1.686 and 1.632; Percent_change_from_Vehicle (Lp(a)) (Lp(a); [11]): -80.7988% and -78.5388% and -72.7079% and -84.7584% and -85.2465%; Lp(a) (Lp(a); [12]): 1.195 and 0.994 and 1.853 and 0.894 and 0.985; Percent_change_from_Vehicle (Lp(a)) (Lp(a); [12]): -89.1971% and -91.0141% and -83.2487% and -91.9181% and -91.0955%; % max Lp(a) decrease (dose, mg/kg) (Lp(a); dose 100 mg/kg): 91.2 (100) %; % Lp(a) max decrease (Lp(a); Lp(a) transgenic mice): 91.2%; Diff_vs_Vehicle (Lp(a); transgenic mice, 1mpk): -1.9212; Diff_vs_Vehicle (Lp(a); transgenic mice, 3mpk): -6.3714; Diff_vs_Vehicle (Lp(a); transgenic mice, 10mpk): -8.8948; Diff_vs_Vehicle (Lp(a); transgenic mice, 30mpk): -9.8776; ED50 (Lp(a); Lp(a) transgenic mice): 3 mg/kg; concentration at 4 h ([1]; oral 1 mg/kg): 28.4 ± 11 nM; concentration at 4 h ([1]; oral 3 mg/kg): 97.3 ± 39.1 nM; concentration at 4 h ([1]; oral 10 mg/kg): 215 ± 34.6 nM; concentration at 4 h ([1]; oral 30 mg/kg): 264 ± 39.3 nM; Cmax ([2]; Chinese cynomolgus, oral 1 mg/kg, day 15): 911 ± 225 nM; AUC(0-t) ([2]; Chinese cynomolgus, oral 1 mg/kg, day 15, read-out: AUC(0-96 hr)): 35.8 µM·h; Tmax ([2]; Chinese cynomolgus, oral 10 mg/kg, day 15): 0.5 h; Cmax ([2]; Chinese cynomolgus, oral 100 mg/kg, day 15): 4850 nM

Source: PMC11111404, “Discovery of potent small-molecule inhibitors of lipoprotein(a) formation” (Nature, 2024)
